According to ChEMBL document CHEMBL5260810, “Inhibition of bromodomain-containing protein 9 for the prevention of epigenetically-defined drug resistance” (Bioorg Med Chem Lett, 2017):

How the values were obtained:
Format in all cases: functional, cell-based
[1] = tested on: RS4-11; assay: Cytotoxicity against human RS4-11 cells measured after 8 days; conditions: RS4-11, 192 h
[2] = tested on: MDA-MB-175-VII; assay: Cytotoxicity against human MDA-MB-175-VII cells measured after 8 days; conditions: 192 h
[3] = Cytotoxicity against human NCE-G 44 cells measured after 8 days; conditions: NCE-G 44, 192 h
[4] = tested on: SF-539; assay: Cytotoxicity against human SF-539 cells measured after 8 days; conditions: SF-539, 192 h
[5] = tested on: SNU-387; assay: Cytotoxicity against human SNU-387 cells measured after 8 days; conditions: SNU-387, 192 h
[6] = tested on: SNG-M; assay: Cytotoxicity against human SNG-M cells measured after 8 days; conditions: 192 h
[7] = tested on: COR-L88; assay: Cytotoxicity against human COR-L88 cells measured after 8 days; conditions: COR-L88, 192 h
[8] = tested on: SK-N-FI; assay: Cytotoxicity against human SK-N-FI cells measured after 8 days; conditions: 192 h
[9] = tested on: RL95-2; assay: Cytotoxicity against human RL95-2 cells measured after 8 days; conditions: RL95-2, 192 h
[10] = tested on: KYSE-520 cell line; assay: Cytotoxicity against human KYSE520 cells measured after 8 days; conditions: KYSE-520, 192 h
[11] = tested on: HepG2; assay: Cytotoxicity against human HepG2 cells measured after 8 days; conditions: HepG2, 192 h
[12] = tested on: MC-IXC; assay: Cytotoxicity against human MC-IXC cells measured after 8 days; conditions: 192 h
[13] = Cytotoxicity against human Panc 05.04 cells measured after 8 days; conditions: Panc 05.04, 192 h
[14] = tested on: KINGS-1; assay: Cytotoxicity against human KINGS-1 cells measured after 8 days; conditions: KINGS-1, 192 h
[15] = Cytotoxicity against human RMUG-S cells measured after 8 days; conditions: 192 h
[16] = Cytotoxicity against human KHM-5M cells measured after 8 days; conditions: 192 h
[17] = tested on: AN3-CA; assay: Cytotoxicity against human AN3-CA cells measured after 8 days; conditions: 192 h
[18] = tested on: KU812 cell line; assay: Cytotoxicity against human KU812 cell line measured after 8 days; conditions: KU812, 192 h
[19] = tested on: MOLM-13; assay: Cytotoxicity against human MOLM-13 cells measured after 8 days; conditions: MOLM-13, 192 h
[20] = tested on: SNU-638; assay: Cytotoxicity against human SNU-638 cells measured after 8 days; conditions: SNU-638, 192 h
[21] = Cytotoxicity against mouse 66cl-4 cells measured after 8 days; conditions: 66cl-4, 192 h
[22] = Cytotoxicity against human KMS-26 cells measured after 8 days; conditions: KMS-26, 192 h
[23] = Cytotoxicity against human JHH-1 cells measured after 8 days; conditions: JHH1, 192 h
[24] = Cytotoxicity against human 624-mel cells measured after 8 days; conditions: Homo sapiens, 624, 192 h
[25] = tested on: Malme-3M; assay: Cytotoxicity against human Malme-3M cells measured after 8 days; conditions: 192 h
[26] = Cytotoxicity against human SCLC-22H cells measured after 8 days; conditions: 192 h
[27] = tested on: PEO1; assay: Cytotoxicity against human PEO1 cells measured after 8 days; conditions: PEO1, 192 h
[28] = tested on: COLO-800; assay: Cytotoxicity against human COLO-800 cells measured after 8 days; conditions: COLO-800, 192 h
[29] = Cytotoxicity against human MR1-3 cells measured after 8 days; conditions: MR1-3, 192 h
[30] = tested on: A498; assay: Cytotoxicity against human A498 cells measured after 8 days; conditions: A498, 192 h
[31] = tested on: OCI-AML-3; assay: Cytotoxicity against human OCI-AML-3 cells measured after 8 days; conditions: OCI-AML-3, 192 h
[32] = tested on: SUP-B15; assay: Cytotoxicity against human SUP-B15 cells measured after 8 days; conditions: SUP-B15, 192 h
[33] = tested on: 8305C; assay: Cytotoxicity against human 8305C cells measured after 8 days; conditions: 192 h
[34] = tested on: L-363; assay: Cytotoxicity against human L-363 cells measured after 8 days; conditions: L-363, 192 h
[35] = tested on: AM-38; assay: Cytotoxicity against human AM-38 cells measured after 8 days; conditions: AM-38, 192 h
[36] = tested on: A-431; assay: Cytotoxicity against human A-431 cells measured after 8 days; conditions: A-431, 192 h
[37] = Cytotoxicity against human KATO III stomach cancer cell line measured after 8 days; conditions: 192 h
[38] = tested on: FaDu; assay: Cytotoxicity against human FaDu cells measured after 8 days; conditions: 192 h
[39] = Cytotoxicity against human JHH-4 cells measured after 8 days; conditions: JHH-4, 192 h
[40] = tested on: CAL-148; assay: Cytotoxicity against human CAL-148 cells measured after 8 days; conditions: CAL-148, 192 h
[41] = tested on: SK-MEL-2; assay: Cytotoxicity against human SK-MEL-2 cells measured after 8 days; conditions: SK-MEL-2, 192 h
[42] = tested on: NCI-H889; assay: Cytotoxicity against human NCI-H889 cells measured after 8 days; conditions: NCI-H889, 192 h
[43] = Cytotoxicity against human HCC1263 cells measured after 8 days; conditions: HCC1263, 192 h
[44] = tested on: BXPC-3; assay: Cytotoxicity against human BXPC-3 cells measured after 8 days; conditions: BXPC-3, 192 h
[45] = tested on: PANC-1; assay: Cytotoxicity against human PANC-1 cells measured after 8 days; conditions: PANC-1, 192 h
[46] = Cytotoxicity against human RERF-LC-KJ cells measured after 8 days; conditions: 192 h
[47] = Cytotoxicity against mouse JC cells measured after 8 days; conditions: 192 h
[48] = tested on: COLO-684; assay: Cytotoxicity against human COLO-684 cells measured after 8 days; conditions: COLO-684, 192 h
[49] = tested on: NB69; assay: Cytotoxicity against human NB69 cells measured after 8 days; conditions: NB69, 192 h
[50] = Cytotoxicity against human NCE-G 96 cells measured after 8 days; conditions: NCE-G 96, 192 h
[51] = tested on: LN-18; assay: Cytotoxicity against human LN-18 cells measured after 8 days; conditions: LN-18, 192 h
[52] = tested on: MC-38; assay: Cytotoxicity against mouse MC-38 cells measured after 8 days; conditions: MC-38, 192 h
[53] = tested on: G-401; assay: Cytotoxicity against human G-401 cells measured after 8 days; conditions: G-401, 192 h
[54] = Cytotoxicity against human Panc 04.03 cells measured after 8 days; conditions: Panc 04.03, 192 h
[55] = Cytotoxicity against human MT-3 cells measured after 8 days; conditions: MT-3, 192 h
[56] = tested on: EJM; assay: Cytotoxicity against human EJM cells measured after 8 days; conditions: 192 h
[57] = tested on: SK-MEL-24; assay: Cytotoxicity against human SK-MEL-24 cells measured after 8 days; conditions: SK-MEL-24, 192 h
[58] = tested on: SNU-449; assay: Cytotoxicity against human SNU-449 cells measured after 8 days; conditions: SNU-449, 192 h
[59] = Cytotoxicity against human COV504 cells measured after 8 days; conditions: COV504, 192 h
[60] = tested on: SK-N-SH; assay: Cytotoxicity against human SK-N-SH cells measured after 8 days; conditions: 192 h
[61] = Cytotoxicity against mouse LTPA cells measured after 8 days; conditions: 192 h
[62] = tested on: SNU-475; assay: Cytotoxicity against human SNU-475 cells measured after 8 days; conditions: SNU-475, 192 h

For `C/C=C/Cn1cc(-c2cc(OC)c(C(=O)N3CCOCC3)cc2OC)c2cc(C)[nH]c2c1=O`, the IC50 [1] was 2 µM.

`C/C=C/Cn1cc(-c2ccc(C(C)(C)O)cc2OC)c2cc[nH]c2c1=O` gave an IC50 [2] of 20 µM, an IC50 [3] of 20 µM and an IC50 [4] of 20 µM. It also gave an IC50 [5] of 20 µM, an IC50 [6] of 20 µM and an IC50 [7] of 20 µM. The IC50 [8] was 20 µM, the IC50 [9] was 20 µM and the IC50 [1] was 15.4 µM. For the same molecule, the IC50 [10] was 14.4 µM, the IC50 [11] was 20 µM and the IC50 [12] was 20 µM. It also gave an IC50 [13] of 20 µM, an IC50 [14] of 20 µM and an IC50 [15] of 20 µM. For the same molecule, the IC50 [16] was 20 µM, the IC50 [17] was 20 µM and the IC50 [18] was 20 µM. For the same molecule, the IC50 [19] was 6.19 µM, the IC50 [20] was 20 µM and the IC50 [21] was 20 µM. It also gave an IC50 [22] of 2.61 µM, an IC50 [23] of 20 µM and an IC50 [24] of 20 µM. The IC50 [25] was 20 µM, the IC50 [26] was 20 µM and the IC50 [27] was 20 µM. The IC50 [28] was 20 µM, the IC50 [29] was 20 µM and the IC50 [30] was 20 µM. The IC50 [31] was 20 µM, the IC50 [32] was 20 µM and the IC50 [33] was 20 µM. For the same molecule, the IC50 [34] was 20 µM, the IC50 [35] was 20 µM and the IC50 [36] was 20 µM. It also gave an IC50 [37] of 20 µM, an IC50 [38] of 20 µM and an IC50 [39] of 20 µM. The IC50 [40] was 20 µM, the IC50 [41] was 20 µM and the IC50 [42] was 20 µM. The IC50 [43] was 20 µM, the IC50 [44] was 20 µM and the IC50 [45] was 20 µM. It also gave an IC50 [46] of 20 µM, an IC50 [47] of 20 µM and an IC50 [48] of 20 µM. It also gave an IC50 [49] of 20 µM, an IC50 [50] of 20 µM and an IC50 [51] of 13.7 µM. The IC50 [52] was 20 µM, the IC50 [53] was 20 µM and the IC50 [54] was 20 µM. It also gave an IC50 [55] of 20 µM, an IC50 [56] of 20 µM and an IC50 [57] of 20 µM. It also gave an IC50 [58] of 20 µM, an IC50 [59] of 20 µM and an IC50 [60] of 20 µM. The IC50 [61] was 20 µM and the IC50 [62] was 20 µM.

Molecule `C/C=C/Cn1cc(-c2ccc(C(=O)N3CCOCC3)cc2)c2cc[nH]c2c1=O` has an IC50 [2] of 20 µM, an IC50 [3] of 20 µM and an IC50 [4] of 20 µM. The IC50 [5] was 20 µM, the IC50 [6] was 20 µM and the IC50 [7] was 20 µM. It also gave an IC50 [8] of 20 µM, an IC50 [9] of 20 µM and an IC50 [10] of 20 µM. It also gave an IC50 [11] of 20 µM, an IC50 [12] of 20 µM and an IC50 [13] of 20 µM. The IC50 [14] was 20 µM, the IC50 [15] was 20 µM and the IC50 [16] was 20 µM. The IC50 [17] was 20 µM, the IC50 [18] was 20 µM and the IC50 [19] was 9.33 µM. For the same molecule, the IC50 [20] was 20 µM, the IC50 [21] was 20 µM and the IC50 [22] was 2.11 µM. It also gave an IC50 [23] of 20 µM, an IC50 [24] of 20 µM and an IC50 [25] of 20 µM. It also gave an IC50 [26] of 20 µM, an IC50 [27] of 20 µM and an IC50 [28] of 20 µM. It also gave an IC50 [29] of 20 µM, an IC50 [30] of 20 µM and an IC50 [31] of 11.3 µM. For the same molecule, the IC50 [32] was 20 µM, the IC50 [33] was 20 µM and the IC50 [34] was 10.4 µM. For the same molecule, the IC50 [35] was 20 µM, the IC50 [36] was 20 µM and the IC50 [37] was 20 µM. It also gave an IC50 [38] of 20 µM, an IC50 [39] of 20 µM and an IC50 [40] of 20 µM. The IC50 [41] was 20 µM, the IC50 [42] was 20 µM and the IC50 [43] was 20 µM. It also gave an IC50 [44] of 20 µM, an IC50 [45] of 20 µM and an IC50 [46] of 20 µM. It also gave an IC50 [47] of 20 µM, an IC50 [48] of 20 µM and an IC50 [49] of 20 µM. The IC50 [50] was 20 µM, the IC50 [51] was 20 µM and the IC50 [52] was 20 µM. The IC50 [53] was 20 µM, the IC50 [54] was 20 µM and the IC50 [55] was 20 µM. For the same molecule, the IC50 [56] was 20 µM, the IC50 [57] was 20 µM and the IC50 [58] was 20 µM. It also gave an IC50 [59] of 20 µM, an IC50 [60] of 20 µM and an IC50 [61] of 20 µM. It also gave an IC50 [62] of 20 µM.
